Here are results for 7 molecules from paper PMC7707621, “Oxidized Juncuenin B Analogues with Increased Antiproliferative Activity on Human Adherent Cell Lines: Semisynthesis and Biological Evaluation” (Journal of Natural Products, 2020).

By inhibition is commonly meant the change of the read-out against control, counted positive when it falls.

The subject of assay [1] is MCF-7 cells. Nature of the assay: MTT antiproliferative assay on MCF-7. Type of assay: cell-based, human. To be noted: for inhibition at 10 µM: MCF7, 10 μM; for inhibition at 10 µM / inhibition at 30 µM: read-out: Growth inhibition (% ± SEM), MCF-7; for inhibition at 30 µM: MCF7, 30 μM. On the procedure:
(§1) The antiproliferative assays of the products were carried out by a standard MTT method on human breast (MCF-7, T47D), cervical (HeLa, SiHa, C33A), and ovarian (A2780) cancer cells, and NIH/3T3 mouse embryonic fibroblast cell lines. In the first step, the diastereomeric and racemic mixtures 1–11 and the starting compound, juncuenin B, were tested to obtain information about their antiproliferative activity.
(§2) The antiproliferative activity and tumor selectivity of the compounds were measured by standard MTT assays. Tumor cell lines MCF-7, T47D, HeLa, A2780, and noncancerous NIH/3T3 were provided by European Collection of Authenticated Cell Cultures (ECACC, Salisbury, UK); cell lines SiHa and C33A by LGC Standards GmbH (Wesel, Germany). All chemicals and materials used for the antiproliferative assays were purchased from Sigma Aldrich Ltd. (Budapest, Hungary).
(§3) Growth-inhibition properties of racemates and pure enantiomer compounds were determined by standard MTT assays on six human malignant gynecological cell lines (MCF-7, T47D, HeLa, SiHa, C33A, A2780). To investigate tumor selectivity, the MTT assay was repeated on mouse embryonic fibroblast cells (NIH/3T3) under the same conditions. All cell lines were maintained in minimal essential medium (MEM) supplemented with 10% fetal bovine serum, 1% nonessential amino acids, and 1% penicillin–streptomycin–amphotericin B mixture, and were stored in humidified air containing 5% CO2 at 37 °C. All cell types were seeded into 96–well plates at a density of 5000 with the exception of C33a, which was seeded at a density of 10 000 and treated by increasing concentrations (0.1–30 μM) of the compounds for 72 h under cell culturing conditions. After the incubation, 5 mg/mL MTT [3-(4,5-dimethylthiazol-2-yl)-2,5-diphenyltetrazolium bromide] solution was added to samples for 4 h and precipitated blue formazan crystals were dissolved in DMSO. Absorbance values of the samples were measured at 545 nm using a microplate reader (Stat Fax-2100, Awareness Technologies Inc., Palm City, FL, USA) and untreated cells were used as control. Normalized sigmoidal dose–response curves were fitted to the determined data and the IC50 values were calculated by GraphPad Prism 5.01 (GraphPad Software, San Diego, CA, USA). Cisplatin (Ebewe Pharma GmbH, Unterach, Austria) was used as a reference agent in the same concentration range.
A general note: Formazan colour is commonly taken as a measure of viable cells.

The subject of assay [2] is A2780 cells. Nature of the assay: MTT antiproliferative assay on A2780. The note with it: for inhibition at 10 µM: A2780, 10 μM; for inhibition at 10 µM / inhibition at 30 µM: read-out: Growth inhibition (% ± SEM), A2780; for inhibition at 30 µM: A2780, 30 μM. Type of assay: cell-based, human. On the procedure:
as §1, §2, §3

Assay [3] has as its system MCF-7, T47D, HeLa, SiHa, C33A, A2780 cells. The assay is described as follows: MTT antiproliferative assay, panel of human gynecological cancer cell lines (result in words). Format: cell-based. The method, then: as §1, §2, §3
Assay [4] deals with C33A cells. Nature of the assay: MTT antiproliferative assay on C33A. Type of assay: cell-based, human. The note with it: for inhibition at 10 µM / inhibition at 30 µM: read-out: Growth inhibition (% ± SEM), C33a. The method, then: as §1, §2, §3
The test system of assay [5] is T47D cells. The assay is described as follows: MTT antiproliferative assay on T47D. Type of assay: cell-based, human. The note with it: for inhibition at 10 µM / inhibition at 30 µM: read-out: Growth inhibition (% ± SEM), T47d. The method, then:
as §1, §2, §3

Assay [6] concerns HeLa cells. The assay is described as follows: MTT antiproliferative assay on HeLa. The note with it: for inhibition at 10 µM / inhibition at 30 µM: read-out: Growth inhibition (% ± SEM), HeLa. Type of assay: cell-based, human. The method, then:
as §1, §2, §3

The subject of assay [7] is SiHa cells. Nature of the assay: MTT antiproliferative assay on SiHa. Format: cell-based, human. To be noted: for inhibition at 10 µM / inhibition at 30 µM: read-out: Growth inhibition (% ± SEM), SiHa. The method, then: as §1, §2, §3
The subject of assay [8] is NIH/3T3 mouse embryonic fibroblast cells. Nature of the assay: MTT assay for tumor selectivity on NIH/3T3. Format: cell-based. To be noted: Mus musculus, NIH3T3. The method, then: as §1, §2, §3

“Also recorded” adds a separate entry of the source.

On to `C=CC1=C(C)C(=O)C=C2C3(OC)C=CC(=O)C(C)=C3CCC21OC` (stereo not shown) [Compound 2b], for which the “Growth inhibition (% ± SEM), MCF-7” value is 27.86±1.80% in assay [1] (10 μM) and 46.79±1.23% in assay [1] (30 μM). Besides, the “Growth inhibition (% ± SEM), A2780” value is listed as below 10% in assay [2] (10 μM) and 38.92±3.78% in assay [2] (30 μM). In addition, the “antiproliferative activity (in words)” value in assay [3] is recorded as “did not exert antiproliferative activity; also recorded: No significant activities”. Further, the “Growth inhibition (% ± SEM), C33a” value is given as below 10% in assay [4] (10 μM) and 23.25±2.82% in assay [4] (30 μM). The “Growth inhibition (% ± SEM), T47d” value in assay [5] (10 μM) is 16.79±1.72%; in assay [5] (30 μM), 25.66±2.53%. In addition, the “Growth inhibition (% ± SEM), HeLa” value is listed as 16.35±1.56% in assay [6] (10 μM) and 38.33±1.22% in assay [6] (30 μM). Besides, the results for the “Growth inhibition (% ± SEM), SiHa” value in assay [7] (10 μM) and in assay [7] (30 μM) were 14.10±2.36% and 15.32±0.68%, respectively.

For the molecule `C=Cc1c(C)c(O)c(OC)c2c3c(ccc12)C(C)(OC)C(=O)C=C3` (stereo not shown) [Compound 3], the inhibition at 10 µM was 22.7 ± 0.57% in assay [1] (Homo sapiens); below 10% in assay [2] (Homo sapiens); below 10% in assay [4] (Homo sapiens, C-33-A, 10 μM); below 10% in assay [5] (Homo sapiens, T47D, 10 μM); below 10% in assay [6] (Homo sapiens, HeLa, 10 μM); below 10% in assay [7] (Homo sapiens, SiHa, 10 μM). The inhibition at 30 µM was 21.4 ± 0.34% in assay [1] (Homo sapiens); below 10% in assay [2] (Homo sapiens); 14.2 ± 1.51% in assay [4] (Homo sapiens, C-33-A, 30 μM); 15.5 ± 2.06% in assay [5] (Homo sapiens, T47D, 30 μM); 15 ± 1.11% in assay [6] (Homo sapiens, HeLa, 30 μM); below 10% in assay [7] (Homo sapiens, SiHa, 30 μM). The “antiproliferative activity (in words)” value in assay [3] is “did not exert antiproliferative activity; also recorded: No significant activities”.

For the molecule `C=CC1=C(C)C(=O)C=C2c3ccc(O)c(C)c3CC[C@]21OC` [Compound 4b], the inhibition at 10 µM is 24.4 ± 1.43% in assay [1] (Homo sapiens); below 10% in assay [2] (Homo sapiens); below 10% in assay [4] (Homo sapiens, C-33-A, 10 μM); 16.5 ± 1.68% in assay [5] (Homo sapiens, T47D, 10 μM); 19 ± 2.11% in assay [6] (Homo sapiens, HeLa, 10 μM); below 10% in assay [8] (10 μM, read-out: Growth inhibition (% ± SEM), NIH). Besides, in assay [7] (Homo sapiens, SiHa, 10 μM), the inhibition at 10 µM is below 10%. In addition, the inhibition at 30 µM in assay [1] (Homo sapiens) was 42 ± 1.94%; in assay [2] (Homo sapiens), 13.7 ± 2.81%; in assay [4] (Homo sapiens, C-33-A, 30 μM), 35.4 ± 0.8%; in assay [5] (Homo sapiens, T47D, 30 μM), 28.1 ± 1.79%; in assay [6] (Homo sapiens, HeLa, 30 μM) it was 37.2 ± 0.72%; in assay [8] (30 μM, read-out: Growth inhibition (% ± SEM), NIH) it was below 10%. For the same molecule, the inhibition at 30 µM in assay [7] (Homo sapiens, SiHa, 30 μM) is below 10%. Further, the IC50 was above 30 µM in assay [1] (Homo sapiens, MCF7, MTT, 0.1–30 μM, 72 h, mean ± SEM, read-out: calculated IC50 values, MCF-7); above 30 µM in assay [2] (Homo sapiens, A2780, MTT, 0.1–30 μM, 72 h, mean ± SEM, read-out: calculated IC50 values, A2780); above 30 µM in assay [4] (Homo sapiens, C-33-A, MTT, 0.1–30 μM, 72 h, mean ± SEM, read-out: calculated IC50 values, C33A); above 30 µM in assay [5] (Homo sapiens, T47D, MTT, 0.1–30 μM, 72 h, mean ± SEM, read-out: calculated IC50 values, T47D); above 30 µM in assay [6] (Homo sapiens, HeLa, MTT, 0.1–30 μM, 72 h, mean ± SEM, read-out: calculated IC50 values, HeLa); above 30 µM in assay [8] (MTT, 0.1–30 μM, 72 h, mean ± SEM, read-out: calculated IC50 values, NIH/3T3). Besides, the IC50 in assay [7] (Homo sapiens, SiHa, MTT, 0.1–30 μM, 72 h, mean ± SEM, read-out: calculated IC50 values, SiHa) is above 30 µM. For the same molecule, the “antiproliferative activity (in words)” value in assay [3] was “no relevant influence on the cell proliferation”.

As for `C=CC1=C(C)C(=O)C=C2C3(OCC)C=CC(=O)C(C)=C3CCC21OCC` (stereo not shown) [Compound 5], the inhibition at 10 µM was below 10% in assay [1] (Homo sapiens); below 10% in assay [2] (Homo sapiens); below 10% in assay [4] (Homo sapiens, C-33-A, 10 μM); below 10% in assay [5] (Homo sapiens, T47D, 10 μM); below 10% in assay [6] (Homo sapiens, HeLa, 10 μM); below 10% in assay [7] (Homo sapiens, SiHa, 10 μM). Moreover, the inhibition at 30 µM in assay [1] (Homo sapiens) is below 10%; in assay [2] (Homo sapiens) it was below 10%; in assay [4] (Homo sapiens, C-33-A, 30 μM) it was 10.3 ± 1.51%; in assay [5] (Homo sapiens, T47D, 30 μM), 14.1 ± 2.78%; in assay [6] (Homo sapiens, HeLa, 30 μM), 14.4 ± 1.51%; in assay [7] (Homo sapiens, SiHa, 30 μM), below 10%. In assay [3], the “antiproliferative activity (in words)” value is “did not exert antiproliferative activity; also recorded: No significant activities”.

On to `C=Cc1c(C)c(O)cc2c3c(ccc12)C(C)(OCC)C(=O)C=C3` (stereo not shown) [Compound 8], for which the inhibition at 10 µM in assay [1] (Homo sapiens) was 13 ± 0.63%; in assay [2] (Homo sapiens) it was below 10%; in assay [4] (Homo sapiens, C-33-A, 10 μM) it was below 10%; in assay [5] (Homo sapiens, T47D, 10 μM), below 10%; in assay [6] (Homo sapiens, HeLa, 10 μM) it was below 10%; in assay [7] (Homo sapiens, SiHa, 10 μM), below 10%. The inhibition at 30 µM was 23.9 ± 2.11% in assay [1] (Homo sapiens); below 10% in assay [2] (Homo sapiens); 21.3 ± 1.52% in assay [4] (Homo sapiens, C-33-A, 30 μM); 14.1 ± 2.02% in assay [5] (Homo sapiens, T47D, 30 μM); 22.2 ± 1.15% in assay [6] (Homo sapiens, HeLa, 30 μM); 16.7 ± 2.83% in assay [7] (Homo sapiens, SiHa, 30 μM). Besides, the “antiproliferative activity (in words)” value in assay [3] is on record as “did not exert antiproliferative activity; also recorded: No significant activities”.

Regarding `C=CC1=C2CCc3c(ccc(O)c3C)C2=CC(=O)C1(C)OCC` (stereo not shown) [Compound 9], the inhibition at 10 µM was 10.7 ± 2.42% in assay [1] (Homo sapiens); below 10% in assay [2] (Homo sapiens); below 10% in assay [4] (Homo sapiens, C-33-A, 10 μM); below 10% in assay [5] (Homo sapiens, T47D, 10 μM); 15.1 ± 1.9% in assay [6] (Homo sapiens, HeLa, 10 μM); below 10% in assay [7] (Homo sapiens, SiHa, 10 μM). Also, the inhibition at 30 µM in assay [1] (Homo sapiens) was 17 ± 2.56%; in assay [2] (Homo sapiens) it was below 10%; in assay [4] (Homo sapiens, C-33-A, 30 μM) it was below 10%; in assay [5] (Homo sapiens, T47D, 30 μM), 13.2 ± 2.03%; in assay [6] (Homo sapiens, HeLa, 30 μM), 18.4 ± 3.15%; in assay [7] (Homo sapiens, SiHa, 30 μM), below 10%. In addition, the “antiproliferative activity (in words)” value in assay [3] was “did not exert antiproliferative activity; also recorded: No significant activities”.

On to `C=CC1=C(C)C(=O)C(OCCCC)(OCCCC)c2c1ccc1c2C=CC(=O)C1(C)OCCCC` (stereo not shown) [Compound 10], for which the inhibition at 10 µM in assay [1] (Homo sapiens) was below 10%; in assay [2] (Homo sapiens) it was below 10%; in assay [4] (Homo sapiens, C-33-A, 10 μM), below 10%; in assay [5] (Homo sapiens, T47D, 10 μM), below 10%; in assay [6] (Homo sapiens, HeLa, 10 μM), below 10%; in assay [7] (Homo sapiens, SiHa, 10 μM), below 10%. The inhibition at 30 µM turned out to be 42.5 ± 2.23% in assay [1] (Homo sapiens); 10.1 ± 1.23% in assay [2] (Homo sapiens); 16 ± 1.43% in assay [4] (Homo sapiens, C-33-A, 30 μM); 33 ± 1.62% in assay [5] (Homo sapiens, T47D, 30 μM); 14.1 ± 1.97% in assay [6] (Homo sapiens, HeLa, 30 μM); 10.4 ± 2.8% in assay [7] (Homo sapiens, SiHa, 30 μM). Besides, in assay [3], the “antiproliferative activity (in words)” value was “did not exert antiproliferative activity”.
